Results as given in patent US20250281457A1, “TREATMENT OR PREVENTION OF DENGUE VIRAL INFECTION” (Janssen Pharmaceuticals, Inc., priority 2022, published 2025).
Marks after values point to notes of the source that are not given here.

Key:
[1] = Safety and tolerability, adverse events (Example 1); assay type: in vivo, human
Description: Safety and tolerability of Compound (a) was evaluated throughout the study, by recording the adverse events (AE) and their grade, as reported by the participants. An AE is any untoward medical occurrence in a subject administered the pharmaceutical formulation comprising Compound (a). […] An AE can therefore be any unfavorable and unintended sign (including an abnormal finding), symptom, or disease temporally associated with the use of the pharmaceutical formulation comprising Compound (a), whether or not related to the administration of the pharmaceutical formulation comprising Compound (a) (definition per International Conference on Harmonisation [ICH].) This includes any occurrence that is new in onset or aggravated in severity or frequency from the baseline condition, or abnormal results of diagnostic procedures, including laboratory test abnormalities. Grade refers to the severity of the AE, according to the below guideline: • Grade 1 Mild: transient or mild discomfort (<48 hours); no medical intervention/therapy required. • Grade 2 Moderate: mild to moderate limitation in activity; some assistance may be needed; no or minimal medical intervention/therapy required. • Grade 3 Severe: marked limitation in activity; some assistance usually required; medical intervention/therapy required; hospitalizations possible. • Grade 4 Potentially Life-threatening: Extreme limitation in activity; significant assistance required; significant medical intervention/therapy required; hospitalization or hospice care probable. All reported AEs with onset during the treatment phase and AEs that have worsened since baseline (ie, treatment-emergent AEs (TEAEs)) were included in the analysis.

[2] = Safety and tolerability, TEAEs (Example 2); assay type: in vivo, human
Description: Safety and tolerability of Compound (a) was evaluated throughout the study, as described in Example 1.

[3] = Panel 1 (400 mg fasted: Treatment A oral solution and Treatment B SF1b)
[4] = Panels 1 and 2 (400 mg fasted; oral solution, SF1b, SF2b)

## COc1cc(NC(C(=O)c2c[nH]c3ccc(OC(F)(F)F)cc23)c2ccc(Cl)cc2OC)cc(S(C)(=O)=O)c1 (centres unmarked) [Compound (a)]
[1]; [3]
  Related adverse events, Grade 1: two Grade 1 AEs of throat irritation and dermatitis on one subject, and throat irritation and dermaturia in another subject
  Related adverse events, Grade 2: one Grade 2 AE of headache and dermatitis
[1]; Panel 2 (400 mg fasted: Treatment A oral solution and Treatment C SF2b)
  Related adverse events, Grade 1: two Grade 1 AEs of headache and dermatitis each in one subject
[1]; [4]
  Grade 1 Treatment Emergent Events, overall: 11
  Grade 2 Treatment Emergent Events, overall: 7
  Grade 3 Treatment Emergent Events, overall: One
  Grade 4 Treatment Emergent Events, overall: No
[2]; Panel 3, Treatment D (800 mg, fasted)
  at least 1 TEAE reported: 9 (69.2%) # Participants (%)
[2]; Panel 3, Treatment E (800 mg, fed, standardized breakfast)
  at least 1 TEAE reported: 6 (40.0%) # Participants (%)
[2]; Panel 4, Treatment F (200 mg, fasted)
  at least 1 TEAE reported: 6 (46.2%) # Participants (%)
[2]; Panel 4, Treatment G (200 mg, fed, standardized breakfast)
  at least 1 TEAE reported: 7 (58.3%) # Participants (%)
[2]; Panel 5, Treatment H (50 mg, fasted)
  at least 1 TEAE reported: 5 (38.5%) # Participants (%)
[2]; Panel 5, Treatment I (50 mg, fed, standardized breakfast)
  at least 1 TEAE reported: 8 (66.7%) # Participants (%)
[2]; single doses 50-800 mg SF2a/b, fasted or fed
  Safety and tolerability, overall conclusion: safe and well tolerated
